Data as given in the NIST ThermoML archive (doi:10.1016/j.jct.2006.09.006).
± gives the expanded uncertainty stated by the source.

Legend:
[1] = 298.15 K; 101.33 kPa; Liquid
[2] = xn = mol fraction of the nth substance listed; conditions: 298.15 K, 101.3 kPa, Liquid

CCO [ethanol]
mass density [1]: 785.6 ± 0.24 kg/m3

FC(F)(F)c1ccccc1 [(trifluoromethyl)benzene]
mass density [1]: 1182.18 ± 0.48 kg/m3

CC(C)OC(C)C [diisopropyl ether]
mass density [1]: 719.17 ± 0.96 kg/m3

CC(C)OC(C)C [diisopropyl ether] + CCO
mass density ([2]; x1 = 0.1072): 774.5 ± 0.5 kg/m3 | mass density ([2]; x1 = 0.2007): 766.1 ± 0.5 kg/m3 | mass density ([2]; x1 = 0.3086): 757.6 ± 0.5 kg/m3 | mass density ([2]; x1 = 0.403): 751 ± 0.5 kg/m3 | mass density ([2]; x1 = 0.4811): 746 ± 0.6 kg/m3 | mass density ([2]; x1 = 0.6142): 738.3 ± 0.6 kg/m3 | mass density ([2]; x1 = 0.6993): 733.8 ± 0.6 kg/m3 | mass density ([2]; x1 = 0.7432): 731.7 ± 0.6 kg/m3 | mass density ([2]; x1 = 0.7863): 729.6 ± 0.6 kg/m3 | mass density ([2]; x1 = 0.8965): 724.4 ± 0.6 kg/m3 | mass density ([2]; x1 = 0.9129): 723.6 ± 0.6 kg/m3

OCC(F)(F)F [2,2,2-trifluoroethanol] + CC(C)OC(C)C
mass density ([2]; x2 = 0.0511): 1320 ± 1 kg/m3 | mass density ([2]; x2 = 0.1069): 1258.5 ± 0.9 kg/m3 | mass density ([2]; x2 = 0.1922): 1175.7 ± 0.7 kg/m3 | mass density ([2]; x2 = 0.2483): 1127.3 ± 0.6 kg/m3 | mass density ([2]; x2 = 0.2968): 1088.9 ± 0.5 kg/m3 | mass density ([2]; x2 = 0.4021): 1013.8 ± 0.4 kg/m3 | mass density ([2]; x2 = 0.4927): 957.1 ± 0.5 kg/m3 | mass density ([2]; x2 = 0.6059): 894 ± 0.5 kg/m3 | mass density ([2]; x2 = 0.6997): 846.9 ± 0.5 kg/m3 | mass density ([2]; x2 = 0.8024): 799.8 ± 0.6 kg/m3 | mass density ([2]; x2 = 0.9113): 754.2 ± 0.6 kg/m3

OCC(F)(F)F [2,2,2-trifluoroethanol]
mass density [1]: 1382.4 ± 1.5 kg/m3

FC(F)(F)c1ccccc1 [(trifluoromethyl)benzene] + CCO
mass density ([2]; x1 = 0.1051): 864 ± 0.4 kg/m3 | mass density ([2]; x1 = 0.1999): 921.7 ± 0.3 kg/m3 | mass density ([2]; x1 = 0.2454): 945.8 ± 0.3 kg/m3 | mass density ([2]; x1 = 0.3059): 975.2 ± 0.2 kg/m3 | mass density ([2]; x1 = 0.4057): 1017.5 ± 0.2 kg/m3 | mass density ([2]; x1 = 0.5022): 1052.8 ± 0.3 kg/m3 | mass density ([2]; x1 = 0.5855): 1079.7 ± 0.3 kg/m3 | mass density ([2]; x1 = 0.7052): 1113.7 ± 0.4 kg/m3 | mass density ([2]; x1 = 0.7886): 1134.9 ± 0.4 kg/m3 | mass density ([2]; x1 = 0.9032): 1161.5 ± 0.4 kg/m3
